# From ChEMBL document CHEMBL1135715, “DNA cleavage potency, cytotoxicity, and mechanism of action of a novel class of enediyne prodrugs” (J Med Chem, 2002)
# Test system: P388
# Test: Cytotoxicity, 50% inhibitory concentration against P388 Mouse T cell leukemia cell line by MTT assay
# Type: functional, cell-based
row,SMILES,IC50
1,COCC(=O)OC1C#CCCCCC#C/C1=C\c1ccccc1 (stereo not given),23 µM
2,COCC(=O)OC(/C1=C/C#CCCCCC#C1)c1ccccc1 (stereo not given),7.7 µM
3,CC(=O)OC1C#CCCCCC#C/C1=C\c1ccc2ccccc2c1 (stereo not given),2.8 µM
4,COc1ccc(C(O)/C2=C/C#CCCCCC#C2)cc1 (stereo not given),13 µM
5,COCC(=O)OC(/C1=C/C#CCCCCC#C1)c1cccc2ccccc12 (stereo not given),3.8 µM
6,OC1C#CCCCCC#C/C1=C\c1ccc2ccccc2c1 (stereo not given),3.6 µM
7,OC1C#CCCCCC#C/C1=C\c1ccccc1 (stereo not given),25 µM
8,COc1ccc(/C=C2\C#CCCCCC#CC2O)cc1 (stereo not given),5.8 µM
9,COCC(=O)OC1C#CCCCCC#C/C1=C\c1cccc2ccccc12 (stereo not given),12 µM
10,CC(=O)OC1C#CCCCCC#C/C1=C\c1cccc2ccccc12 (stereo not given),2.4 µM
11,CC(=O)OC1C#CCCCCC#C/C1=C\c1ccccc1 (stereo not given),48 µM
12,OC1C#CCCCCC#C/C1=C\c1cccc2ccccc12 (stereo not given),41 µM
13,COc1ccc(/C=C2\C#CCCCCC#CC2OC(C)=O)cc1 (stereo not given),15 µM
14,COCC(=O)OC(/C1=C/C#CCCCCC#C1)c1ccc2ccccc2c1 (stereo not given),9.5 µM
15,COCC(=O)OC1C#CCCCCC#C/C1=C\c1ccc2ccccc2c1 (stereo not given),28 µM
